The values below come from patent US20230023559A1, “ARYLMETHYLENE HETEROCYCLIC COMPOUNDS AS KV1.3 POTASSIUM SHAKER CHANNEL BLOCKERS” (D. E. Shaw Research, LLC, priority 2019, published 2023).

The target in one assay is hERG channel (Homo sapiens, UniProt Q12809). Briefly: hERG electrophysiology, automated whole-cell patch clamp (Patchliner). For orientation: Block of hERG is tested as a sign of cardiac risk.
For a further assay, the target named is T1, Kv1.3 potassium channel (Homo sapiens, UniProt P22001).
T1 construct: expressed in transfected cells
The assay can be described thus: Kv1.3 potassium channel blocker activity, automated whole-cell patch clamp (Patchliner). As to conditions: CHO-K1 cells stably expressing Kv1.3; whole cell current inhibition; read-out: Kv1.3_IC50. It counts as cell-based. In a few lines: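 Peak-current block was recorded on stable Kv1.3 CHO-K1 cells by automated patch clamp, stepping from a −90 mV holding potential to +40 mV for 100 ms at 0.1 Hz with 10 s breaks between trains. Online P/4 leak subtraction, 10 kHz sampling; compound exposure under 10 s per train.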
For orientation: Patch clamp records ionic current or voltage across a cell membrane.

Chain of hERG channel (Q12809 whole entry): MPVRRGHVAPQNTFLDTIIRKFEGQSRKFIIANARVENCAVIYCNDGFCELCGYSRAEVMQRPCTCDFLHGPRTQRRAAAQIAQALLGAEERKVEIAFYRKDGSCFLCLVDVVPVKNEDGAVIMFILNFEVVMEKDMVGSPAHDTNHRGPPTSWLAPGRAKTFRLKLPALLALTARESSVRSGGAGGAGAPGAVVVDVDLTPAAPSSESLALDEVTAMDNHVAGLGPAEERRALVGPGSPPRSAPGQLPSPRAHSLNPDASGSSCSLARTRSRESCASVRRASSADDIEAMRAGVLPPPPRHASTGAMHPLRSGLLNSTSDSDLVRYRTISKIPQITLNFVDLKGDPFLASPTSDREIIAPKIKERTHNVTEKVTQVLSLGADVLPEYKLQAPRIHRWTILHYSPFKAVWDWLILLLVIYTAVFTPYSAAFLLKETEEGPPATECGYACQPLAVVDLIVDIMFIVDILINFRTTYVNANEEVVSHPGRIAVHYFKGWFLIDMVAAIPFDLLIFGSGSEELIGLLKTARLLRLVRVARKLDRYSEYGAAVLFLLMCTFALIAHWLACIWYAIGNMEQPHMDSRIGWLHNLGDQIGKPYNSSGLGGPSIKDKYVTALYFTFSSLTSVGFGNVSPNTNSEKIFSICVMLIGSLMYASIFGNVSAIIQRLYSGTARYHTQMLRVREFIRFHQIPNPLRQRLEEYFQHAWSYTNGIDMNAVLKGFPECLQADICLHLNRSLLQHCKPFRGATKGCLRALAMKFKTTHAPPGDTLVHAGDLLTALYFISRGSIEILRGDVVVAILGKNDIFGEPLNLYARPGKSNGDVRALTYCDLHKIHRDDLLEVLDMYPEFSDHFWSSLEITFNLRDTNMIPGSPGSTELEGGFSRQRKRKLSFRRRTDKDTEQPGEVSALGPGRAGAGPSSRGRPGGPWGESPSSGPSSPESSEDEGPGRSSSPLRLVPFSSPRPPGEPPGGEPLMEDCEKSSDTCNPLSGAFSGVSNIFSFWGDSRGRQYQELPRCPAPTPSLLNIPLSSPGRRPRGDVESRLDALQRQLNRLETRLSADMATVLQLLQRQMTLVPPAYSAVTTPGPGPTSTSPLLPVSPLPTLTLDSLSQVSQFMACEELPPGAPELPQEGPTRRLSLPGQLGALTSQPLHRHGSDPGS
T1 sequence (P22001 whole entry): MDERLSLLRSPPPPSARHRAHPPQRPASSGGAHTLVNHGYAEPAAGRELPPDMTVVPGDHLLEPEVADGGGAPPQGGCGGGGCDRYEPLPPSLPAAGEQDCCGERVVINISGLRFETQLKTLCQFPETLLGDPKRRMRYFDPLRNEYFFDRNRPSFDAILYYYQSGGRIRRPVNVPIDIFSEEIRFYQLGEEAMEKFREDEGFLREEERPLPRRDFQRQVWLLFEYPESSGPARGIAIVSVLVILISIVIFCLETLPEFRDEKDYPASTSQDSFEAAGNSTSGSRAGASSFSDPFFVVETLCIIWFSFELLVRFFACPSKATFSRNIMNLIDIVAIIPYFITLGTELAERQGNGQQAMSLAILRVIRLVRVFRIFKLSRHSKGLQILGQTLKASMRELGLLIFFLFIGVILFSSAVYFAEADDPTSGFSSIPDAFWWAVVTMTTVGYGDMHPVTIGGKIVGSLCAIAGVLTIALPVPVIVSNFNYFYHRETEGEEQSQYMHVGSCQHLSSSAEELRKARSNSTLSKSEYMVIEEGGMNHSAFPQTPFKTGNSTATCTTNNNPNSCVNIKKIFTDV
Procedure for hERG channel: CHO-K1 cells stably expressing hERG were grown in Ham's F-12 Medium with Glutamine containing 10% heat-inactivated FBS, 1% Penicillin/Streptomycin, Hygromycin (100 μg/ml) and G418 (100 μg/ml). Cells were grown in culture flasks at 37° C. in a 5% CO2-humidified incubator.
The cells were bathed in an extracellular solution containing 140 mM NaCl, 4 mM KCl, 2 mM CaCl2), 1 mM MgCl2, 5 mM Glucose, 10 mM HEPES; pH adjusted to 7.4 with NaOH; 295-305 mOsm. The internal solution contained 50 mM KCl, 10 mM NaCl, 60 mM KF, 20 mM EGTA, 10 mM HEPES; pH adjusted to 7.2 with KOH; 285 mOsm. All compounds were dissolved in DMSO at 30 mM. Compound stock solutions were freshly diluted with external solution to concentrations of 30 nM, 100 nM, 300 nM, 1 μM, 3 μM, 10 μM, 30 μM and 100 μM. The highest content of DMSO (0.3%) was present in 100 μM.
The voltage protocol (see Table B) was designed to simulate voltage changes during a cardiac action potential with a 300 ms depolarization to +20 mV (analogous to the plateau phase of the cardiac action potential), a repolarization for 300 ms to −50 mV (inducing a tail current) and a final step to the holding potential of −80 mV. The pulse frequency was 0.3 Hz. Control (compound-free) and compound pulse trains for each compound concentration applied contained 70 pulses.
Whole cell current recordings and compound application were enabled by means of an automated patch clamp platform Patchliner (Nanion). EPC 10 patch clamp amplifier (HEKA) along with Patchmaster software (HEKA Elektronik Dr. Schulze GmbH) was used for data acquisition. Data were sampled at 10 kHz without filtering. Increasing compound concentrations were applied consecutively to the same cell without washouts in between.
AUC and PEAK values were obtained with Patchmaster (HEKA Elektronik Dr. Schulze GmbH). To determine IC50 the last single pulse in the pulse train corresponding to a given compound concentration was used. Obtained AUC and PEAK values in the presence of compound were normalized to control values in the absence of compound. Using Origin (OridinLab), IC50 was derived from data fit to Hill equation: Icompound/Icontrol=(100−A)/(1+([compound]/IC50)nH)+A, where IC50 is the concentration at which current inhibition is half-maximal, [compound] is the applied compound concentration, A is the fraction of current that is not blocked and nH is the Hill coefficient.

`N[C@@H](c1cc(Cl)c(Cl)cc1O)C1CCN(C(=O)C2CNC(=O)C2)CC1` (stereo partly drawn) [Compound 223, 4-[4-[(R)-amino(4,5-dichloro-2-hydroxyphenyl)methyl]piperidine-1-carbonyl] pyrrolidin-2-one trifluoroacetic acid]: the values for the IC50 against hERG channel and on Kv1.3 potassium channel were more than 30 µM and less than 0.5 µM, respectively.
Taken in the same sequence, the figures for `N[C@@H](c1cc(Cl)c(Cl)cc1O)C1CCN(C(=O)CC2CNC2)CC1` [Compound 103, (R)-1-(4-(amino(4,5-dichloro-2-hydroxyphenyl)methyl)piperidin-1-yl)-2-(azetidin-3-yl)ethanone trifluoroacetic acid] were more than 30 µM and less than 0.5 µM.
With `Cc1cc(O)c([C@H](N)C2CCN(C(=O)[C@@H]3CCNC3)CC2)cc1Cl` [Compound 237, (4-((R)-amino(5-chloro-2-hydroxy-4-methylphenyl)methyl)piperidin-1-yl)((R)-pyrrolidin-3-yl)methanone trifluoroacetic acid], the concentration for half-maximal inhibition (IC50) (as a rule, the concentration that inhibits the measured activity by half) was more than 30 µM at hERG channel and less than 0.5 µM on Kv1.3 potassium channel.
Taken in the same sequence, the figures for `C[C@H](O)C(=O)N1CCC([C@@H](N)c2cc(Cl)c(Cl)cc2O)CC1` [Compound 102, (S)-1-(4-((R)-amino(4,5-dichloro-2-hydroxyphenyl)methyl)piperidin-1-yl)-2-hydroxypropan-1-one] were more than 30 µM and less than 0.5 µM.
As for `N[C@@H](c1cc(Cl)c(Cl)cc1O)C1CCN(S(=O)(=O)[C@@H]2CCNC2)CC1` (single isomer, unassigned; isomer 1) [Compound 112], the concentration for half-maximal inhibition (IC50) at hERG channel was more than 30 µM; on Kv1.3 potassium channel it was less than 0.5 µM.
Taken in the same sequence, the figures for `Cc1cc(O)c([C@H](N)C2CCN(C(=O)c3ccc(=O)[nH]c3)CC2)cc1Cl` [Compound 228, 5-[4-[(R)-amino(5-chloro-2-hydroxy-4-methylphenyl)methyl]piperidine-1-carbonyl]-1H-pyridin-2-one] were more than 30 µM and less than 0.5 µM.
As to `N[C@@H](c1cc(Cl)c(Cl)cc1O)C1CCN(C(=O)C(O)CO)CC1` (stereo partly drawn) [Compound 117, 1-(4-((R)-amino(4,5-dichloro-2-hydroxyphenyl)methyl)piperidin-1-yl)-2,3-dihydroxypropan-1-one], the IC50 at hERG channel was more than 30 µM; on Kv1.3 potassium channel, less than 0.5 µM.
As to `N[C@@H](c1cc(Cl)c(Cl)cc1O)C1CCN(C(=O)C2CNC(=O)OC2)CC1` (stereo partly drawn) [Compound 279, 5-[4-[(R)-amino(4,5-dichloro-2-hydroxyphenyl)methyl]piperidine-1-carbonyl]-1,3-oxazinan-2-one trifluoroacetic acid], the results for the concentration for half-maximal inhibition (IC50) on hERG channel and at Kv1.3 potassium channel were more than 30 µM and less than 0.5 µM, respectively.
Taken in the same sequence, the figures for `Cc1cc(O)c([C@H](N)C2CCN(C(=O)c3c[nH]c(=O)cc3Cl)CC2)cc1Cl` [Compound 245, 5-[4-[(R)-amino (5-chloro-2-hydroxy-4-methylphenyl)methyl]piperidine-1-carbonyl]-4-chloro-1H-pyridin-2-one trifluoroacetic acid] were more than 30 µM and less than 0.5 µM.
For `N[C@@H](c1cc(Cl)c(Cl)cc1O)C1CCN(C(=O)[C@H](O)CO)CC1` (single isomer, unassigned) [Compound 119], the IC50 is more than 30 µM on hERG channel and less than 0.5 µM at Kv1.3 potassium channel.
Taken in the same sequence, the figures for `N[C@@H](c1cc(Cl)c(Cl)cc1O)C1CCN(C(=O)c2nnc[nH]2)CC1` [Compound 152, (R)-(4-(amino(4,5-dichloro-2-hydroxyphenyl)methyl)piperidin-1-yl)(1H-1,2,4-triazol-3-yl)methanone trifluoroacetic acid] were more than 30 µM and less than 10 µM.
In the same order, the values of `O=C([C@@H]1CCNC1)N1CCC([C@@H](O)c2c(O)ccc(Cl)c2Cl)CC1` (single isomer, unassigned) [Compound 123, Trifluoroacetic Acid] are more than 30 µM and less than 0.5 µM.
